According to PMC5903829 (Experimental & Molecular Medicine, 2018):

System: Caco-2 cells
Experiment: Trans-epithelial electrical resistance in Caco-2 monolayers
Format: cell-based, human
Settings: compound C 30 min pre-treatment, then LPS or LPS+AmEV

For `c1cc(-c2cnn3cc(-c4ccc(OCCN5CCCCC5)cc4)cnc23)ccn1` [compound C], which “AmEVs' ability to improve LPS-induced loss of barrier integrity (TEER) in the presence of AMPK inhibitor” value is on record?
Its value is “abolished”.
